# Source: patent US20200371122A1, “BIOMARKER FOR SENESCENT CELLS” (Buck Institute for Research on Aging, priority 2017, published 2020)
# Experiments:
# IL-6 secretion = test: IL-6 ELISA on non-senescent cells treated with prostaglandins; format: cell-based, human; conditions: 10 μM, 10 days
# Experimental: Human fetal lung fibroblasts (IMR-90) were cultured in Dulbecco's modified eagle medium (DMEM) supplemented with 10% FBS and penicillin/streptomycin. LL 29 (AnHa) cells were obtained from the ATCC and growth to confluence using the ATCC protocol, but were subcultured as described for IMR-90 before initiation of all experiments. Quiescence was induced by replacing culture media with media containing 0.2% FBS. MCF-7 and MDA-MB-231 breast cancer cells were cultured in RPMI supplemented with 10% FBS and penicillin/streptomycin. All cells were cultured at 3% O2, and used between 25 and 40 population doublings. All cells were mycoplasma free.
# 3×10^4 cells in 12-well plates were treated as indicated in the text, and cultured in 0.5-1 ml serum-free DMEM for 24 hr. CM were collected and clarified at 2,000×g for 10 min. Supernatants were transferred to a tube; cells were trypsinized and counted. CM (2.5 μl) were analyzed by bead-based ELISAs (AlphaLISA, Perkin-Elmer) as instructed by the manufacturer and normalized to cell number.
# IMR-90 fibroblasts = test: Induction of senescence in non-senescent cells by prostaglandins or 5-LOX pathway products (EdU, SA-B-gal, p21, immunoblot); format: cell-based, human
# Experimental: RNA was extracted from cells or tissues using commercially available kits (Isolate II—Bioline for cells; Direct-zol—Zymo for tissues) according to the manufacturer's instructions. cDNA synthesis was performed using a High Capacity cDNA Reverse Transcription Kit (Thermo Fisher) according to the manufacturer's instructions. Quantitative PCR was performed on a LightCycler 480 II (Roche) using primers and probes designed for the Universal Probe Library. Primers and probes used for human transcripts were ACTB: 5′-CCAACCGCGAGAAGATGA (SEQ ID NO:1), 5′-TCCATCACGATGCCAGTG (SEQ ID NO:2), Probe #64; TUBA: 5′-cttcgtctccgccatcag (SEQ ID NO:3), 5′-ttgccaatctggacacca (SEQ ID NO:4), Probe #58; ALOX5: 5′-[…] (SEQ ID NO:5), 5′-[…] (SEQ ID NO:6), Probe #64; ALOX5AP: 5′-ggtctgcggggctacttt (SEQ ID NO:7), 5′-[…] (SEQ ID NO:8), Probe #18; ALOX12: 5′-[…] (SEQ ID NO:9), 5′-agccaggtcgtcaggag (SEQ ID NO:10), Probe #32; ALOX15: 5′-[…] (SEQ ID NO:11), 5′-[…] (SEQ ID NO:12), Probe #76; ALOX15B: 5′-[…] (SEQ ID NO:13), 5′-actgggaggcgaagaagg (SEQ ID NO:14), Probe #51; AKR1C1: 5′-catgcctgtcctgggattt (SEQ ID NO:15), 5′-[…] (SEQ ID NO:16), Probe #49; AKR1C2: 5′-ctatgcgcctgcagaggt (SEQ ID NO:17), 5′-[…] (SEQ ID NO:18), Probe #31; AKR1C3: 5′-[…] (SEQ ID NO:19), 5′-[…] (SEQ ID NO:20), Probe #78; CYSLTR2: 5′-[…] (SEQ ID NO:21), 5′-[…] (SEQ ID NO:22), Probe #18; DPEP1: 5′-gacgtcctgaggctggtg (SEQ ID NO:23), 5′-[…] (SEQ ID NO:24), Probe #9 (SEQ ID NO:25), ELOVL2: 5′-[…] (SEQ ID NO:26), 5′-[…] (SEQ ID NO:27), Probe #53; ELOVL4: 5′-catttggcccatggattc (SEQ ID NO:28), 5′-[…] (SEQ ID NO:29), Probe #31; ELOVL5: 5′-cccttccatgcgtccata (SEQ ID NO:30), 5′-[…] (SEQ ID NO:31), Probe #31; EPHX2: 5′-ttctgctggacaccctgaa (SEQ ID NO:32), 5′-[…] (SEQ ID NO:33), Probe #45; GPX4: 5′-ttcccgtgtaaccagttcg (SEQ ID NO:34), 5′-[…] (SEQ ID NO:35), Probe #36; LTA4H: 5′-ctgctctcacggtccagtc (SEQ ID NO:36), 5′-[…] (SEQ ID NO:37), Probe #64; LTBR2: 5′-[…] (SEQ ID NO:38), 5′-[…] (SEQ ID NO:39), Probe #33; LTC4S: 5′-[…] (SEQ ID NO:40), 5′-[…] (SEQ ID NO:41), Probe #18; PTGDS: 5′-[…] (SEQ ID NO:42), 5′-[…] (SEQ ID NO:43), Probe #36; PTGES: 5′-agagatgcctgcccacag (SEQ ID NO:44), 5′-tggccaccacgtacatctt (SEQ ID NO:45), Probe #4; PTGES2: 5′-[…] (SEQ ID NO:46), 5′-[…] (SEQ ID NO:47), Probe #49; PTGES3 (SEQ ID NO:48), 5′-[…] (SEQ ID NO:49), 5′-[…] (SEQ ID NO:50), Probe #48; PTGIS: 5′-[…] (SEQ ID NO:51), 5′-[…] (SEQ ID NO:52), Probe #45; PTGR1: 5′-atgatggggcagcaagtg (SEQ ID NO:53), 5′-cccatcagaaatggagtgc (SEQ ID NO:54), Probe #64; PTGS1: 5′-[…] (SEQ ID NO:55), 5′-gtggtggtccatgttcctg (SEQ ID NO:56), Probe #81; PTGS2: 5′-gatccccagggctcaaac (SEQ ID NO:57), 5′-[…] (SEQ ID NO:58), Probe #61; TBXAS1: 5′-[…] (SEQ ID NO:59), 5′-tgcctcccgtgtgaatct (SEQ ID NO:60), Probe #73; AREG: 5′-[…] (SEQ ID NO:61), 5′-[…] (SEQ ID NO:62), Probe #73; CCL2: 5′-AGTCTCTGCCGCCCTTCT (SEQ ID NO:63), 5′-GTGACTGGGGCATTGATTG (SEQ ID NO:64), Probe #40; CCL27: 5′-[…] (SEQ ID NO:65), 5′-gctgggtggcagtaggaat (SEQ ID NO:66), Probe #18; CXCL1: 5′-[…] (SEQ ID NO:67), 5′-[…] (SEQ ID NO:68), Probe #52; HGF: 5′-[…] (SEQ ID NO:69), 5′-[…] (SEQ ID NO:70), Probe #49; ILIA: 5′-[…] (SEQ ID NO:71), 5′-[…] (SEQ ID NO:72), Probe #6; IL1B: 5′-[…] (SEQ ID NO:73), 5′-[…] (SEQ ID NO:74), Probe #78; IL6: 5′-[…] (SEQ ID NO:75), 5′-gaaggcagcaggcaacac (SEQ ID NO:76), Probe #45; IL8: 5′-[…] (SEQ ID NO:77), 5′-atggttccttccggtggt (SEQ ID NO:78), Probe #72; IL10: 5′-[…] (SEQ ID NO:79), 5′-[…] (SEQ ID NO:80), Probe #67; MMP3: 5′-[…] (SEQ ID NO:81), 5′-[…] (SEQ ID NO:82), Probe #36; PDGFA: 5′-[…] (SEQ ID NO:83), 5′-[…] (SEQ ID NO:84), Probe #80; VEGF: 5′-[…] (SEQ ID NO:85), 5′-[…] (SEQ ID NO:86), Probe #50; P21WAF1(CDKN1A): 5′-[…]
# [1] = test system: IMR-90 fibroblasts depleted of p53 by shRNA; test: Prostaglandin treatment of p53-depleted (shp53) IMR-90 fibroblasts (Ki67, cleaved caspase 3); format: cell-based, human; conditions: shp53 cells, 3 days
# Experimental: For EdU labeling, cells were cultured with EdU (10 μM) for 24 h, fixed in 4% buffered formalin for 10 min, washed in PBS, and permeabilized in 0.5% Triton X-100 for 30 min. Cells were treated as instructed by the manufacturer Life Technologies Cat #C10337). For immunofluorescence, cells were blocked in 10% normal goat serum for 30 min, washed, and incubated overnight in antibodies to Ki67 (Abcam) or cleaved caspase 3 (Cell Signaling). Cell were then washed, incubated in fluorescent secondary antibodies, and mounted using vectashield mounting medium with DAPI.
# [2] = test system: bleomycin-induced fibrosis; conditions: administration; Kida 2016, Genovese 2005; cited from earlier work
smiles,measurement,setting,value
"CCCCC[C@H](O)/C=C/[C@H]1C(=O)C[C@H](O)[C@@H]1C/C=C\CCCC(=O)O [PGD2, prostaglandin D2]",IL-6 secretion,IL-6 secretion,elevated
same,levels of LMNB1 and cellular HMGB1,"IMR-90 fibroblasts; 10 μM, 10 days",reduced levels
same,p21 gene expression,"IMR-90 fibroblasts; 10 μM, 10 days",induced
same,senescence-associated beta-galactosidase,"IMR-90 fibroblasts; 10 μM, 10 days",induced
same,p21 protein accumulation,"IMR-90 fibroblasts; 10 μM, 10 days, immunoblot",induced
same,p53 stabilization,"IMR-90 fibroblasts; 10 μM, 10 days, immunoblot",stabilized
same,p53 phosphorylation or acetylation,"IMR-90 fibroblasts; 10 μM, 10 days, western blot",without increasing
same,expression of MMP3 and secretion of IL-6 on removal of the prostaglandin,IMR-90 fibroblasts; release after 7 days at 10 μM,reduced
same,apoptosis (positivity for cleaved caspase 3),[1],underwent apoptosis
same,continued cell division (Ki67 positivity) after loss of p53,[1],did not allow
same,bleomycin-induced fibrosis,[2],attenuate
